{"source": "patent US20020111274A1", "about": "“1-alkyl-3-[1-(substituted phenyl) benzotriazol-6-yl] uracils” (BASF Aktiengesellschaft, priority 2000, published 2002)", "parameters_in_all_cases": "scale not given here", "key": {"ECHOG Barnyardgrass": {"system": "ECHOG Barnyardgrass", "experiment": "Postemergence herbicidal evaluation, ECHOG", "type": "in vivo, Echinochloa crus-galli, (L.) Beau", "conditions": "postemergence spray, rated about two-three weeks after treatment", "protocol": "(§1) In this evaluation, seedling plants are grown in jiffy flats for about two weeks. The test compounds are dispersed in 80/20 acetone/water mixtures containing 1.0% SUN-IT® II, a methylated seed oil, in sufficient quantities to provide the equivalent of about 0.006 kg to 0.400 kg per hectare of active compound when applied to the plants through a spray nozzle operating at 40 psi for a predetermined time. After spraying, the plants are placed on greenhouse benches and are cared for in accordance with conventional greenhouse procedures. Approximately two - three weeks after treatment, the seedling plants are examined and rated according to the rating system set forth below. Where more than one test is involved for a given compound, the data are averaged."}, "[1]": {"system": "IPOHE Morningglory, Ivyleaf", "experiment": "Postemergence herbicidal evaluation, IPOHE", "type": "in vivo, Ipomoea hederacea, (L.) Jacq.", "conditions": "postemergence spray, rated about two-three weeks after treatment", "protocol": "as §1"}, "SETVI Foxtail, Green": {"system": "SETVI Foxtail, Green", "experiment": "Preemergence herbicidal evaluation, SETVI", "type": "in vivo, Setaria viridis, (L.) Beau", "conditions": "preemergence", "text": "(§2) The preemergence herbicidal activity of the test compounds of the present invention is exemplified by the following tests in which the seeds of a variety of monocotyledonous and dicotyledonous plants are separately mixed with potting soil and planted on top of approximately one inch of soil in separate pint cups. […] The treated cups are then placed on greenhouse benches, watered and cared for in accordance with conventional greenhouse procedures. From four to five weeks after treatment, the tests are terminated and each cup is examined and rated according to the rating system provided in Example 46."}, "ORYSAT Rice, Tebonnet": {"system": "ORYSAT Rice, Tebonnet", "experiment": "Postemergence herbicidal evaluation, ORYSAT", "type": "in vivo, Oryza sativa, (L.)", "conditions": "postemergence spray, rated about two-three weeks after treatment", "protocol": "as §1"}, "GALAP Galium [2]": {"system": "GALAP Galium", "experiment": "Postemergence herbicidal evaluation, GALAP", "type": "in vivo, Galium aparine", "conditions": "postemergence spray, rated about two-three weeks after treatment", "protocol": "as §1"}, "GALAP Galium [3]": {"system": "GALAP Galium", "experiment": "Preemergence herbicidal evaluation, GALAP", "type": "in vivo, Galium aparine", "conditions": "preemergence", "text": "as §2"}, "CASOB Sicklepod [4]": {"system": "CASOB Sicklepod", "experiment": "Postemergence herbicidal evaluation, CASOB", "type": "in vivo, Cassia obtusifolia, L.", "conditions": "postemergence spray, rated about two-three weeks after treatment", "protocol": "as §1"}, "CASOB Sicklepod [5]": {"system": "CASOB Sicklepod", "experiment": "Preemergence herbicidal evaluation, CASOB", "type": "in vivo, Cassia obtusifolia, L.", "conditions": "preemergence", "text": "as §2"}, "AMBEL Ragweed, Common": {"system": "AMBEL Ragweed, Common", "experiment": "Postemergence herbicidal evaluation, AMBEL", "type": "in vivo, Ambrosia artemisifolia, L.", "conditions": "postemergence spray, rated about two-three weeks after treatment", "protocol": "as §1"}, "[6]": {"system": "IPOHE Morningglory, Ivyleaf", "experiment": "Preemergence herbicidal evaluation, IPOHE", "type": "in vivo, Ipomoea hederacea, (L.) Jacq.", "conditions": "preemergence", "text": "as §2"}, "ZEAMX Corn, Field": {"system": "ZEAMX Corn, Field", "experiment": "Postemergence herbicidal evaluation, ZEAMX", "type": "in vivo, Zea mays, L. (Sammel-Bezeichnung)", "conditions": "postemergence spray, rated about two-three weeks after treatment", "protocol": "as §1"}, "GLXMAW Soybean, Williams": {"system": "GLXMAW Soybean, Williams", "experiment": "Preemergence herbicidal evaluation, GLXMAW", "type": "in vivo, Glycine max, (L.) Merr. cv Williams", "conditions": "preemergence", "text": "as §2"}}, "data": [{"smiles": "Cc1ccccc1-n1nnc2cc(F)c(-n3c(=O)cc(C(F)(F)F)n(C)c3=O)cc21", "note": "[Example 20]", "values": [{"measurement": "Postemergence herbicidal rating ECHCG", "setting": "ECHOG Barnyardgrass; 0.008 kg/ha", "value": 0.0}, {"measurement": "Postemergence herbicidal rating ECHCG", "setting": "ECHOG Barnyardgrass; 0.016 kg/ha", "value": 0.0}, {"measurement": "Postemergence herbicidal rating ECHCG", "setting": "ECHOG Barnyardgrass; 0.032 kg/ha", "value": 0.0}, {"measurement": "Postemergence herbicidal rating ECHCG", "setting": "ECHOG Barnyardgrass; 0.062 kg/ha", "value": 0.0}, {"measurement": "Postemergence herbicidal rating IPOHE", "setting": "[1]; 0.008 kg/ha", "value": 1.0}, {"measurement": "Postemergence herbicidal rating IPOHE", "setting": "[1]; 0.016 kg/ha", "value": 4.0}, {"measurement": "Postemergence herbicidal rating IPOHE", "setting": "[1]; 0.032 kg/ha", "value": 4.0}, {"measurement": "Postemergence herbicidal rating IPOHE", "setting": "[1]; 0.062 kg/ha", "value": 9.0}, {"measurement": "SETVI herbicidal rating", "setting": "SETVI Foxtail, Green; rate 0.016 kg/ha", "value": 0.0}, {"measurement": "SETVI herbicidal rating", "setting": "SETVI Foxtail, Green; rate 0.032 kg/ha", "value": 8.0}, {"measurement": "SETVI herbicidal rating", "setting": "SETVI Foxtail, Green; rate 0.062 kg/ha", "value": 9.0}, {"measurement": "SETVI herbicidal rating", "setting": "SETVI Foxtail, Green; rate 0.125 kg/ha", "value": 9.0}, {"measurement": "Postemergence herbicidal rating ORYSAT", "setting": "ORYSAT Rice, Tebonnet; 0.008 kg/ha", "value": 0.0}, {"measurement": "Postemergence herbicidal rating ORYSAT", "setting": "ORYSAT Rice, Tebonnet; 0.016 kg/ha", "value": 0.5}, {"measurement": "Postemergence herbicidal rating ORYSAT", "setting": "ORYSAT Rice, Tebonnet; 0.032 kg/ha", "value": 0.5}, {"measurement": "Postemergence herbicidal rating ORYSAT", "setting": "ORYSAT Rice, Tebonnet; 0.062 kg/ha", "value": 1.0}, {"measurement": "Postemergence herbicidal rating GALAP", "setting": "GALAP Galium [2]; 0.008 kg/ha", "value": 0.0}, {"measurement": "Postemergence herbicidal rating GALAP", "setting": "GALAP Galium [2]; 0.016 kg/ha", "value": 0.0}, {"measurement": "Postemergence herbicidal rating GALAP", "setting": "GALAP Galium [2]; 0.032 kg/ha", "value": 2.0}, {"measurement": "Postemergence herbicidal rating GALAP", "setting": "GALAP Galium [2]; 0.062 kg/ha", "value": 9.0}, {"measurement": "GALAP herbicidal rating", "setting": "GALAP Galium [3]; rate 0.016 kg/ha", "value": 0.0}, {"measurement": "GALAP herbicidal rating", "setting": "GALAP Galium [3]; rate 0.032 kg/ha", "value": 0.0}, {"measurement": "GALAP herbicidal rating", "setting": "GALAP Galium [3]; rate 0.062 kg/ha", "value": 0.0}, {"measurement": "GALAP herbicidal rating", "setting": "GALAP Galium [3]; rate 0.125 kg/ha", "value": 0.0}, {"measurement": "Postemergence herbicidal rating CASOB", "setting": "CASOB Sicklepod [4]; 0.008 kg/ha", "value": 0.0}, {"measurement": "Postemergence herbicidal rating CASOB", "setting": "CASOB Sicklepod [4]; 0.016 kg/ha", "value": 0.0}, {"measurement": "Postemergence herbicidal rating CASOB", "setting": "CASOB Sicklepod [4]; 0.032 kg/ha", "value": 0.0}, {"measurement": "Postemergence herbicidal rating CASOB", "setting": "CASOB Sicklepod [4]; 0.062 kg/ha", "value": 1.0}, {"measurement": "CASOB herbicidal rating", "setting": "CASOB Sicklepod [5]; rate 0.016 kg/ha", "value": 0.0}, {"measurement": "CASOB herbicidal rating", "setting": "CASOB Sicklepod [5]; rate 0.032 kg/ha", "value": 0.0}, {"measurement": "CASOB herbicidal rating", "setting": "CASOB Sicklepod [5]; rate 0.062 kg/ha", "value": 0.0}, {"measurement": "CASOB herbicidal rating", "setting": "CASOB Sicklepod [5]; rate 0.125 kg/ha", "value": 2.0}, {"measurement": "Postemergence herbicidal rating AMBEL", "setting": "AMBEL Ragweed, Common; 0.008 kg/ha", "value": 0.0}, {"measurement": "Postemergence herbicidal rating AMBEL", "setting": "AMBEL Ragweed, Common; 0.016 kg/ha", "value": 1.0}, {"measurement": "Postemergence herbicidal rating AMBEL", "setting": "AMBEL Ragweed, Common; 0.032 kg/ha", "value": 1.0}, {"measurement": "Postemergence herbicidal rating AMBEL", "setting": "AMBEL Ragweed, Common; 0.062 kg/ha", "value": 3.0}, {"measurement": "IPOHE herbicidal rating", "setting": "[6]; rate 0.016 kg/ha", "value": 0.0}, {"measurement": "IPOHE herbicidal rating", "setting": "[6]; rate 0.032 kg/ha", "value": 3.0}, {"measurement": "IPOHE herbicidal rating", "setting": "[6]; rate 0.062 kg/ha", "value": 4.5}, {"measurement": "IPOHE herbicidal rating", "setting": "[6]; rate 0.125 kg/ha", "value": 4.5}, {"measurement": "Postemergence herbicidal rating ZEAMX", "setting": "ZEAMX Corn, Field; 0.008 kg/ha", "value": 3.0}, {"measurement": "Postemergence herbicidal rating ZEAMX", "setting": "ZEAMX Corn, Field; 0.016 kg/ha", "value": 3.5}, {"measurement": "Postemergence herbicidal rating ZEAMX", "setting": "ZEAMX Corn, Field; 0.032 kg/ha", "value": 3.5}, {"measurement": "Postemergence herbicidal rating ZEAMX", "setting": "ZEAMX Corn, Field; 0.062 kg/ha", "value": 5.0}, {"measurement": "GLXMAW herbicidal rating", "setting": "GLXMAW Soybean, Williams; rate 0.016 kg/ha", "value": 0.0}, {"measurement": "GLXMAW herbicidal rating", "setting": "GLXMAW Soybean, Williams; rate 0.032 kg/ha", "value": 0.5}, {"measurement": "GLXMAW herbicidal rating", "setting": "GLXMAW Soybean, Williams; rate 0.062 kg/ha", "value": 1.5}, {"measurement": "GLXMAW herbicidal rating", "setting": "GLXMAW Soybean, Williams; rate 0.125 kg/ha", "value": 3.0}]}]}
